From publication PMC7782499, “Progerinin, an optimized progerin-lamin A binding inhibitor, ameliorates premature senescence phenotypes of Hutchinson-Gilford progeria syndrome” (Communications Biology, 2021)

Experiments:
progerin-lamin A binding = target: T1, progerin-lamin A binding (Homo sapiens, UniProt P02545); test: GST pull-down assay of progerin-lamin A binding; details: 5 μM
T1 construct: expressed in transfected cells; host or cells: HEK293 (GFP-progerin); the GST-lamin A bait is a recombinant protein, with E. coli B834 (DE3) named for the lamin A/C fragments
T1 sequence (P02545 1-611 isoform P02545-6): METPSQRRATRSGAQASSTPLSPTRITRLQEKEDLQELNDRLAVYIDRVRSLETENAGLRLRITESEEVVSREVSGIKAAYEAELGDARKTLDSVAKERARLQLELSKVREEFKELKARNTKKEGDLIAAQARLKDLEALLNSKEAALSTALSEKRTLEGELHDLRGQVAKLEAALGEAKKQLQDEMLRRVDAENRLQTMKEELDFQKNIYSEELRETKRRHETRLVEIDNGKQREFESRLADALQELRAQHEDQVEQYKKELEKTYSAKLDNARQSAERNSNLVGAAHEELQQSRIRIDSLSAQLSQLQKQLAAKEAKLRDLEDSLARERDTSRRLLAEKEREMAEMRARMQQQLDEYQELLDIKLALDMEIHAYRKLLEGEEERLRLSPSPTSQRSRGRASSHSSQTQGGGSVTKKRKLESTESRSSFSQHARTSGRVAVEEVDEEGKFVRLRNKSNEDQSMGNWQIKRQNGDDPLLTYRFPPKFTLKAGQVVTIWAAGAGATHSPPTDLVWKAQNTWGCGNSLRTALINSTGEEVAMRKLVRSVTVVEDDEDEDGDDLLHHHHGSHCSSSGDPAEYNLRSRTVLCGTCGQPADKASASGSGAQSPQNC
Description: Fig. 1 SLC-D011 ameliorates premature aging features of HGPS. A. HEK293 cells were transiently transfected with expression vector encoding wild-type lamin A (WT-LA), lamin A-C661A (LA-C661A), progerin, or progerin-C611A. LA-C661A or progerin-C611A with point mutation in CaaX motif was predicted to be lack of farnesylation, […] that of authentic WT-LA or progerin. GFP-conjugated empty expression vector was used as a negative control. Cells were visualized at 24 h after transfection. B Transient transfection of HEK293 cells with expression vector encoding progerin or progerin-G611A leads to reduced expression of H3K9me3 (n = 3 independent experiments; two-tailed Student’s t test). C. JH4 derivatives (JH010 and SLC-D011(D011)) inhibit lamin A and progerin interaction. For binding inhibition assay, bead-conjugated lamin A (GST-LA) was incubated with HEK293 cells, transiently transfected with GFP-progerin (PG), and treated with indicated chemicals. Actin was used as a loading control. PPT, co-precipitated materials with recombinant proteins; Sup supernatant. 5 μM of each chemical was used for binding assay. […] H3K9me3 reduction is a well-known marker for premature aged cells. Thus, H3K9me3 expression was evaluated by immunostaining. […] Cell viability was determined by MTT assay after incubation with chemicals for 7 days (n = 3 independent experiments; two-tailed Student’s t test). […]

[1] = Pharmacokinetic analysis of SLC-D011 dissolved in monoolein-based solution, oral; format: in vivo; parameters: unit not given here
Description: Fig. S9. In vitro ADME results of SLC-D011 via oral administration. A. Formulation for complete dissolution. Due to its extremely hydrophobic property, SLC-D011 was not dissolved in water solution (left). To overcome this problem, several edible solutions were tested and monoolein- based solution was selected as a dissolving solution (right). B. SLC-D011 was very stable in solution. For complete dissolution, heating at 80℃ and sonication step were required. However, SLC -D011 was not broken despite of heating […]
and sonication. […] C and D.
Pharmacokinetic analysis of SLC -D011dissolved in monoolein- based solution.

CYP2D6 = CYP2D6 (Homo sapiens, UniProt P10635); test: CYP inhibition, CYP2D6; format: in vitro ADME
Description: At pre-set time-points, blood concentration of JH4 was determined by LC-MS/MS analysis[22],[23]. Other chemicals were also tested using similar protocol. In vitro ADME studies (plasma protein binding, CYP inhibition, microsomal stability, plasma stability, and hERG inhibition) were performed by New Drug Development Center (Daegu, Korea) using standard protocols[24],[25].

CYP2D6, sequence (P10635 whole entry): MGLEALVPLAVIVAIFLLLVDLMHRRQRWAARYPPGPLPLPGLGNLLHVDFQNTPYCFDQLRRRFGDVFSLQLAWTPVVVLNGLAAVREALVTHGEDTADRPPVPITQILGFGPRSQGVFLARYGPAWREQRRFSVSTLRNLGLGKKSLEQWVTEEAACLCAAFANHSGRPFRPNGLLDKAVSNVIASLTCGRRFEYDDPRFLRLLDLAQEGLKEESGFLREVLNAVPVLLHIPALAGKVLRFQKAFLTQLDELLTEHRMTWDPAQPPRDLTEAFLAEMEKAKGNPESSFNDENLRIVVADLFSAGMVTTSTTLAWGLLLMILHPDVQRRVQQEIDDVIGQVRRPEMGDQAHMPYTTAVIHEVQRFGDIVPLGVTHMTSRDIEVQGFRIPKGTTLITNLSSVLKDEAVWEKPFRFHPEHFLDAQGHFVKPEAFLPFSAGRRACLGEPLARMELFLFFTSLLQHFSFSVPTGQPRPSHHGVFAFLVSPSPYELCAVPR

CC1(C)Oc2cc3oc(=O)ccc3cc2C[C@@H]1OC/C=C/c1ccccc1 [SLC-D011]
Effect on interaction of progerin and lamin A (progerin-lamin A binding): could block the interaction of progerin and lamin A | Plasma concentration, Mean ([1]; oral 10mg/kg (n=3), 0.25 hr): 41 | Plasma concentration, Mean ([1]; oral 10mg/kg (n=3), 0.5 hr): 71 | Plasma concentration, Mean ([1]; oral 10mg/kg (n=3), 1 hr): 124.8 | Plasma concentration, Mean ([1]; oral 10mg/kg (n=3), 2 hr): 441.9 | Plasma concentration, Mean ([1]; oral 10mg/kg (n=3), 4 hr): 318.8 | Plasma concentration, Mean ([1]; oral 10mg/kg (n=3), 8 hr): 160.1 | Plasma concentration, Mean ([1]; oral 10mg/kg (n=3), 24 hr): 7.7 | Plasma concentration, Mean ([1]; oral 20mg/kg (n=3), 0.25 hr): 67.3 | Plasma concentration, Mean ([1]; oral 20mg/kg (n=3), 0.5 hr): 93.1 | Plasma concentration, Mean ([1]; oral 20mg/kg (n=3), 1 hr): 537.5 | Plasma concentration, Mean ([1]; oral 20mg/kg (n=3), 2 hr): 581.7 | Plasma concentration, Mean ([1]; oral 20mg/kg (n=3), 4 hr): 899.9 | Plasma concentration, Mean ([1]; oral 20mg/kg (n=3), 8 hr): 574 | Plasma concentration, Mean ([1]; oral 20mg/kg (n=3), 24 hr): 9.7 | CYP inhibition (CYP2D6): 91.7
